Data taken from patent US20070049538A1, “METHODS FOR USING CUCURBITACIN COMPOUNDS” (SOUTH DAKOTA STATE UNIVERSITY, priority 2005, published 2007).
Where two headings read alike, the source gives them in different places.

Experiments:
[1] = Chromatographic hydrophobicity index (CHI) by RP-HPLC in buffered methanol; assay type: physicochemical; conditions: for CHIMeOH (b): standard compounds, isochratic and gradient elution of standard mixture; for CHIMeOH: buffered methanol pH 7.0, Econosil C18 150 mm, Eq. (4)
Description: (§1) We used Dynamax liquid chromatograph (Varian Chromatography Systems) with PDA-2 photodiode array UV detector, controlled by the Dynamax PC Chromatography Data System (v. 1.9) software and Dynamax dual pump solvent delivery system, model SD-200. […] Cucurbitacins analytical separation was optimized on Alltima C18 (Alltech; 250 mm×4.6 mm, 5 μm) HPLC column, at gradient elution in acetonitrile (ACN, 30-70% ACN in 57 min), and in MeOH (60-75% MeOH in 50 min). Cucurbitacins stock concentration of 10^−2M in DMSO:ethanol (1:1) was standardized against pure cucurbitacin I (Indofine Chemical Company, Hillsborough, N.J.) by analytical HPLC means. Compounds CHI was measured in both ACN, by using Alltima C18 column, and in MeOH, by using Econosil C18 column (Alltech; 150 mm×4.6 mm, 5 μm). Analytical separations were conducted at a flow rate of 1 ml/min. The aqueous phase was buffered for the CHI measurement. For this purpose, solid ammonium acetate (Fisher Sci. Co., Fair Lawn, N.J.) was dissolved in deionized distilled water at 50 mM final concentration and its pH adjusted to 7.0.
A standard mixture of 10 compounds including 19-21, 23-27, aniline (compound 28) and bromobenzene (compound 29), dissolved in MeOH, was injected at five isochratic elution, at 40, 45, 50, 55, and 60% MeOH. Then the mixture was injected at fast gradient elution to establish the correlation from Eq. (1). The fast linear gradient elution was optimized for 30-100% MeOH in aqueous buffer with 10 min runtime.
(§2) Cucurbitacins lipophilicity was measured by RP-HPLC. […] Due to its high viscosity, aqueous MeOH required a shorter column than the one applied for ACN. First, the C18 columns were calibrated against a standard mixture, and the relationships established between the fast gradient tR and φ0 or published CHI (see Eqs. (2)-(4) from Table 2). Second, cucurbitacins were injected at fast gradient elution under similar conditions, and their CHI calculated (Table 4) from Eqs. (2)-(4). Eqs.

[2] = Chromatographic hydrophobicity index (CHI) by RP-HPLC in buffered acetonitrile; assay type: physicochemical; design: key: CHI = φ0 (isocratic hydrophobicity index), = A·tR + B; ACN % scale; conditions: for CHIACN (b): standard compounds, isochratic and gradient elution of standard mixture; for CHIACN1: buffered acetonitrile pH 7.0, Alltima C18 250 mm, Eq. (2) from isocratic φ0; for CHIACN2: buffered acetonitrile pH 7.0, Eq. (3) calibrated against published CHI
Description: as §1
All standard compounds were purchased from Acros (Acros Organics, NJ). The chromatographic lipophilicity or hydrophobicity was determined applying Valkó's technique (Valkó et al., Anal. Chem. 69 (1997) 2022, the entire disclosure of which is herein incorporated by reference). A standard mixture of seven compounds was prepared in solution: theophylline (compound 19), benzimidazole (compound 20), acetophenone (compound 21), indole (compound 22), propiophenone (compound 23), butyrophenone (compound 24), and valerophenone (compound 25). […] The retention factor, log k=log((tR-t0)/t0), was calculated for each analyte from five good injections of […] sample. The dead time (t0) was measured by injecting NaNO3 together with the sample. Then, the log k values were plotted against isocratic ACN concentrations to establish the linear regression equations for each analyte. From each straight line the isocratic hydrophobicity index was computed, φ0=(intercept/slope). Further, the calibration mixture was injected at fast gradient elution, 0-22 min 0-100% ACN, and three additional minutes at 100% ACN. The φ0 values for the test compounds were plotted against gradient retention time and the linear equation determined from the following equation: φ0=CHI=AtR+B (1)
The gradient elution conditions were similar to the one from the first approach.
as §2

[3] = standard compounds; gradient elution and correlation with published data; cited from earlier work
HSC-T6 cells [4] = assay: Cytotoxicity on HSC-T6 cells (experiment 3); assay type: cell-based, rat; conditions: for IC50: read-out: Experiment 3 IC50 (T)
Source text: Cytotoxicity of all cucurbitacin analogs was additionally measured in experiment 3 (Table 8).

HSC-T6 cells [5] = assay: Serum-driven HSC-T6 proliferation, experiment 3 (24 h, proliferating cells); assay type: cell-based, rat; conditions: HSC-T6, 24 h, read-out: Experiment 3 EC50 (A)
Description: (§3) To overcome this problem, the amount of incubation time was increased to 24 h, and cucurbitacin activity measured on starved (Exp. 2) or proliferative (Exp. 3) cells (Table 8). Cells turned quiescent when serum was not supplemented for one day (Exp. 2). Activity of a few compounds was monitored on quiescent cells, and their activity compared to the ones measured on proliferating cells (Exp. 3).
(§4) We established several experimental conditions such as 4 hours of incubation time with cucurbitacin, and 2 day cell incubation with fresh media after challenging with cucurbitacin (Exp. 1). Other experiments involved addition of cucurbitacin for 24 hours over starved cells (Exp. 2) vs. proliferating cells (Exp. 3), and one day incubation of cells with fresh media after challenge. The 4 hour incubation period with cucurbitacin triggered anti-proliferation effect. This effect, however, was hindered by a second cycle of cell proliferation during the two-day cell growth period (see silybin, E and I glucosides, and for I-nPr). […] Because of that, the challenge time was increased to 24 hours (Exp. 2 and 3).
(§5) In experiment 3, only 40% of the cells divided. The ratio of EC50 values for exp. 2 and exp. 3 varied between 3.6 and 12.7. This may indicate differential cytotoxicity of silybin and cucurbitacin analogs over quiescent and active stellate cells. In other words, compounds show higher anti-proliferative activity on active cells than on quiescent cells.

HSC-T6 cells [6] = assay: Serum-driven HSC-T6 proliferation, experiment 2 (24 h, starved/quiescent cells); assay type: cell-based, rat; conditions: HSC-T6, 24 h, read-out: Experiment 2 EC50
Description: as §3, §4, §5

HSC-T6 cells [7] = assay: Serum-driven HSC-T6 proliferation, experiment 1 (4 h challenge, two days drug-free growth); assay type: cell-based, rat; conditions: for EC50: HSC-T6, 4 h challenge, then two days drug-free media
Description: The proliferation effect of serum on HSC-T6 cells was optimized and cucurbitacin antiproliferative activity was measured. Serum contains a large number of growth factors, hormones and other nutrients, which help cells to grow and multiply. Several trials were conducted. In experiment 1, cells were challenged with cucurbitacin analogs for 4 h and then cells were grown in drug-free media for two additional days.
HSC-T6 cells were photographed under phase-contrast microscope to record possible changes in cell morphology during experiment 1. […] We are monitoring specifically the effect of compound on the cells, cell recovery after 4 h challenge, and relative cell proliferation. […] Live cells are quantified at the end of the assay (row 4) with MTT dye.
We established several experimental conditions such as 4 hours of incubation time with cucurbitacin, and 2 day cell incubation with fresh media after challenging with cucurbitacin (Exp. 1). Other experiments involved addition of cucurbitacin for 24 hours over starved cells (Exp. 2) vs. proliferating cells (Exp. 3), and one day incubation of cells with fresh media after challenge. […] Because of that, the challenge time was increased to 24 hours (Exp. 2 and 3).
We modified this approach. Our assay included a second control (ZC) supplemented with no serum intended to measure cucurbitacin anti-proliferation effect relative to the number of cells generated during challenge instead of the total number of cells present in each well.

HepG2 cells [8] = assay: cells
Source text: Experimental conditions were standardized on silybin. […]
The ratio of IC50-to-EC50 (hereafter T/A) is also indicated in this table, which gives the margin between toxic and cytoprotective concentrations.

HepG2 cells [9] = assay: Cucurbitacins cytotoxicity on HepG2 cells (MTT viability assay); assay type: cell-based, human
Description: HepG2 (human hepatocellular carcinoma, ATCC) cells were grown in EMEM (Gibco, Grand Island, N.Y.) supplemented with 10% fetal bovine serum (FBS), and 1% penicillin/fungizone mixture (Gibco). Thabrew's optimized procedure (Thabrew et al., J. Pharm. Pharmcol. 49 (1994) 1442, the entire disclosure of which is herein incorporated by reference) was followed. Cells were batch cultured for 10 days, then seeded at concentration of 30,000 cells/well in fresh media in 96-well microtiter plastic plates at 37° C. for a day. Then cells were exposed to different concentrations of cucurbitacins at final volume of 100 μl/well. Five-fold serial dilution of compounds was carried out in the plate for five consecutive wells. After 24 h of incubation with chemicals, live cells were visualized using the MTT viability assay (Promega, Madison, Wis.). The absorbance was measured at 570 nm. Negative (without cells) and positive (without test chemicals) controls were also incubated with each plate. […] At least three reproducible experiments were performed per compound with three replicate wells per concentration.
Cells were challenged with cu-curbitacins at various concentrations for a day and then live cells quantified with MTT dye. This period of time measures exclusively compounds cytotoxicity, while longer incubation time may lead to interference from metabolites.

[10] = DPPH* Stable Free Radical Scavenging Assay
Description: Cucurbitacin antioxidant activity was studied first by the DPPH* Stable Free Radical Scavenging Assay (Cotelle et al., Free radical Biology & Medicine 20(1): 35-43, 1996). Experimental conditions were optimized on the standard compound ascorbic acid. Data indicated 30% activity at 50 μM concentration, and 100% activity at 100 μM for ascorbic acid. While the original assay required 10 minutes incubation time for the reaction to occur, this time was increased up to 30 minutes in case cucurbitacin were reacting slower than other reagents.

[11] = system: lipid peroxidation of microsomal suspension; assay: Microsomal Lipid Peroxidation Assay; assay type: biochemical; conditions: at 0.1 mM, both chemical and enzymatic assays
Description: Cucurbitacin anti-lipid peroxidation was studied by the Microsomal Lipid Peroxidation Assay (Engineer et al., Biochemical Pharmacology 38(8): 1279-1285, 1989). Lipid peroxidation of microsomal suspension was induced both enzymatically and chemically and validated on the standard compound quercetin. […] Activity of 3 cucurbitacin analogs, B, E, and E-Me-ether was monitored at 0.1 mM indicating no inhibition in either the chemical or enzymatic assay.

[12] = read-out: EC50 cytoprotection, Table 7, HepG2 against CCl4 toxicity, estimated

CC(=O)c1ccccc1 [Acetophenone (21), acetophenone, reference compound]
CHIMeOH (b) [1]: 52.47 ± 0.05
CHIACN (b) [2]: 61.93 ± 0.05
CHIACN (c) [3]: 64.90

c1ccc2[nH]cnc2c1 [Benzimidazole (20), benzimidazole, reference compound]
CHIMeOH (b) [1]: 41.07 ± 0.04
CHIACN (b) [2]: 43.18 ± 0.12
CHIACN (c) [3]: 30.71

CCCC(=O)c1ccccc1 [Butyrophenone (24), butyrophenone, reference compound]
CHIMeOH (b) [1]: 66.79 ± 0.05
CHIACN (b) [2]: 79.32 ± 0.14
CHIACN (c) [3]: 88.49

CCOC1=CC2C(=CCC3C2(C)C(=O)CC2(C)C(C(C)(O)C(=O)C=CC(C)(C)O)C(O)CC32C)C(C)(C)C1=O (centres unmarked) [I-Et]
CHIMeOH [1]: 69.61
IC50 (HSC-T6 cells [4]): 3.5 µM
EC50 (HSC-T6 cells [5]; proliferating cells): 0.34 µM
EC50 (HSC-T6 cells [6]; starved (quiescent) cells): 1.4 µM
CHIACN1 [2]: 69.99
CHIACN2 [2]: 73.94
EC50 (HSC-T6 cells [7]): 7.95 µM

COC1=CC2C(=CCC3C2(C)C(=O)CC2(C)C(C(C)(O)C(=O)C=CC(C)(C)O)C(O)CC32C)C(C)(C)C1=O (centres unmarked) [I-Me]
EC50 (HepG2 cells [8]; [12]): 5.3 µM
CHIMeOH [1]: 66.58
IC50 (HepG2 cells [9]; Table 4, 24 h incubation, MTT): 15 µM
IC50 (HepG2 cells [9]; Table 5): 15 ± 5.6 µM
IC50 (HepG2 cells [9]; Table 7): 15 µM
IC50 (HSC-T6 cells [4]): 6.4 µM
EC50 (HSC-T6 cells [5]; proliferating cells): 0.11 µM
EC50 (HSC-T6 cells [6]; starved (quiescent) cells): 1.4 µM
CHIACN1 [2]: 64.84
CHIACN2 [2]: 65.95
EC50 (HSC-T6 cells [7]): 3.4 µM

COC1=CC2C(=CCC3C2(C)C(=O)CC2(C)C(C(C)(O)C(=O)CCC(C)(C)O)C(O)CC32C)C(C)(C)C1=O [L-Me]
EC50 (HepG2 cells [8]; [12]): 5 µM
CHIMeOH [1]: 66.58
IC50 (HSC-T6 cells [4]): 6.7 µM
EC50 (HSC-T6 cells [5]; proliferating cells): 0.18 µM
EC50 (HSC-T6 cells [6]; starved (quiescent) cells): 1 µM
CHIACN1 [2]: 64.84
CHIACN2 [2]: 65.95
EC50 (HSC-T6 cells [7]): 10.8 µM

CCC(=O)c1ccccc1 [Propiophenone (23), propiophenone, reference compound]
CHIMeOH (b) [1]: 60.41 + 0.04
CHIACN (b) [2]: 71.72 + 0.15
CHIACN (c) [3]: 78.41

COc1cc(C2Oc3cc([C@H]4Oc5cc(O)cc(O)c5C(=O)[C@@H]4O)ccc3OC2CO)ccc1O (some centres unmarked) [Silybin, reference compound]
cell growth with compound alone (HepG2 cells [8]; HepG2, 14 to 200 μM, absence of CCl4): up to 125%
concentration giving complete protection from CCl4 (HepG2 cells [8]; HepG2, CCl4 4.5×10^−3 M): higher than 100 μM
EC50 (HepG2 cells [8]; Homo sapiens, HepG2, read-out: EC50 cytoprotection): 45 µM
cytoprotection attained (HepG2 cells [8]; text b199): 100%
Experiment 3 IC50 (T) (HSC-T6 cells [4]): non toxic
EC50 (HSC-T6 cells [5]; Rattus norvegicus): 18.8 µM
EC50 (HSC-T6 cells [6]; Rattus norvegicus): 68 µM
Experiment 1 anti-proliferation activity reached (HSC-T6 cells [7]; EC50 could not be estimated): < 50%
Experiment 1 anti-proliferation activity (HSC-T6 cells [7]; measured at 100 μM): ˜20%^a^

Cn1c(=O)c2[nH]cnc2n(C)c1=O [Theophylline (19), theophylline, reference compound]
CHIMeOH (b) [1]: 25.76 ± 0.05
CHIACN (b) [2]: 32.63 ± 0.07
CHIACN (c) [3]: 15.76

CCCCC(=O)c1ccccc1 [Valerophenone (25), valerophenone, reference compound]
CHIMeOH (b) [1]: 73.05 + 0.12
CHIACN (b) [2]: 86.66 ± 0.08
CHIACN (c) [3]: 97.67

O=C1O[C@H]([C@@H](O)CO)C(O)=C1O [ascorbic acid]
DPPH activity ([10]; at 50 μM): 30%
DPPH activity ([10]; at 100 μM): 100%

O=c1c(O)c(-c2ccc(O)c(O)c2)oc2cc(O)cc(O)c12 [quercetin, reference compound]
inhibition of lipid peroxidation [11]: 100%
